Measured values: US20250230193A1, “CYCLIC COMPOUND HAVING SELECTIVE KRAS INHIBITORY EFFECT ON HRAS AND NRAS” (CHUGAI SEIYAKU KABUSHIKI KAISHA, priority 2022, published 2025)

How the values were obtained:
[1] = biological target: GDP-bound HRAS wild-type protein (Homo sapiens, UniProt P01112); experiment: Binding to HRAS by surface plasmon resonance (SPR), Single Cycle Kinetics; details: for HRAS/KRAS (ratio of KD value with respect to HRAS to KD value with respect to KRAS) / HRAS/KRAS (ratio of KD value for HRAS to KD value for KRAS): GDP-bound HRAS wild-type vs GDP-bound KRAS wild-type
GDP-bound HRAS wild-type protein, sequence (P01112 whole entry): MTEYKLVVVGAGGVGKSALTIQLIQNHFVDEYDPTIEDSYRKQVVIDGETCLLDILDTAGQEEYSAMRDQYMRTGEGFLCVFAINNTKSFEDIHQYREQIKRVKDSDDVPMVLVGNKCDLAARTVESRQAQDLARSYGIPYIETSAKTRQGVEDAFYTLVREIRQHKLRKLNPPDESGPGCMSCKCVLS

[2] = biological target: GDP-bound NRAS wild-type protein (Homo sapiens, UniProt P01111); experiment: Binding to NRAS by surface plasmon resonance (SPR), Single Cycle Kinetics; details: for NRAS/KRAS (ratio of KD value with respect to NRAS to KD value with respect to KRAS) / NRAS/KRAS (ratio of KD value for NRAS to KD value for KRAS): GDP-bound NRAS wild-type vs GDP-bound KRAS wild-type
GDP-bound NRAS wild-type protein, sequence (P01111 whole entry): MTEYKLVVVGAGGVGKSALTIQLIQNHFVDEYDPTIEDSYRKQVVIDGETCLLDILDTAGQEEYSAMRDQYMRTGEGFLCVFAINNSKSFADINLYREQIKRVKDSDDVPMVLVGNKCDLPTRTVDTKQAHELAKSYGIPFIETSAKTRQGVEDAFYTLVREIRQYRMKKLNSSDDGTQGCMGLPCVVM

SMILES: CCO[C@@H]1C[C@H]2C(=O)NC3(CCC3)C(=O)N(C)[C@@H](C3CCCC3)C(=O)N(C)[C@H](C(=O)N3CCOCC3)CC(=O)N(C)[C@@H](CC(C)C)C(=O)N[C@@H]([C@@H](C)CC)C(=O)N(C)CC(=O)N(C)[C@H]3CC(C)=CCN(C3=O)[C@@H](Cc3ccc(C(F)(F)F)cc3)C(=O)N(C)CC(=O)N[C@@H](CCc3cc(F)c(C(F)(F)F)c(F)c3)C(=O)N2C1 [PP1039]
- HRAS/KRAS (ratio of KD value with respect to HRAS to KD value with respect to KRAS) ([1]; KD ratio, SPR): C (A compound having a KD ratio of 0.1 or more and less than 3 is denoted as C)
- NRAS/KRAS (ratio of KD value with respect to NRAS to KD value with respect to KRAS) ([2]; KD ratio, SPR): C (A compound having a KD ratio of 0.1 or more and less than 3 is denoted as C)

SMILES: CC[C@H](C)[C@@H]1NC(=O)[C@H](CC)N(C)C(=O)C[C@@H](C(=O)N2CCOCC2)N(C)C(=O)[C@H](C2CCCC2)N(C)C(=O)C2(CCCC2)NC(=O)[C@@H]2CCCN2C(=O)[C@H](CCc2ccc(C(F)(F)F)c(Cl)c2)NC(=O)CN(C)C(=O)[C@H](Cc2ccc(F)cc2)N2CCCCC[C@@H](C2=O)N(C)C(=O)CN(C)C1=O [PP0959]
- HRAS/KRAS (ratio of KD value with respect to HRAS to KD value with respect to KRAS) ([1]; KD ratio, SPR): B (a compound having 3 or more and less than 10 is denoted as B)
- NRAS/KRAS (ratio of KD value with respect to NRAS to KD value with respect to KRAS) ([2]; KD ratio, SPR): B (a compound having 3 or more and less than 10 is denoted as B)

SMILES: CC[C@H](C)[C@@H]1NC(=O)[C@H](CC2CC2)N(C)C(=O)C[C@@H](C(=O)N(C)C)N(C)C(=O)[C@H](C2CCCC2)N(C)C(=O)C2(CCC2)N(C)C(=O)[C@@H]2C[C@@H](C)CN2C(=O)[C@H](CCc2cc(F)c(C(F)(F)F)c(F)c2)NC(=O)CN(C)C(=O)[C@H](Cc2ccc(C)cc2)N2CC/C=C\C[C@@H](C2=O)N(C)C(=O)CN(C)C1=O [PP1800]
- HRAS/KRAS (ratio of KD value for HRAS to KD value for KRAS) ([1]; KD ratio, SPR): A (a compound having 10 or more and less than 20 is denoted as A)
- NRAS/KRAS (ratio of KD value for NRAS to KD value for KRAS) ([2]; KD ratio, SPR): A (a compound having 10 or more and less than 20 is denoted as A)

SMILES: CC[C@H](C)[C@@H]1NC(=O)[C@@H]2CCCCCN2C(=O)C[C@@H](C(=O)N2CCOCC2)N(C)C(=O)[C@H](C2CCCC2)N(C)C(=O)C2(CCCC2)NC(=O)[C@@H]2CCCN2C(=O)[C@H](CCc2cc(F)c(C(F)(F)F)c(F)c2)NC(=O)CN(C)C(=O)[C@H](Cc2ccc(C(F)(F)F)cc2)N2CCCC[C@@H](C2=O)N(C)C(=O)CN(C)C1=O [PP0595]
- HRAS/KRAS (ratio of KD value with respect to GDP-bound HRAS wild-type protein to KD value with respect to KRAS) ([1]; SPR): B (a compound having 3 or more and less than 10 is denoted as B)
- NRAS/KRAS (ratio of KD value with respect to GDP-bound NRAS wild-type protein to KD value with respect to KRAS) ([2]; SPR): C (A compound having a KD ratio of 0.1 or more and less than 3 is denoted as C)

SMILES: CC[C@H](C)[C@@H]1NC(=O)[C@H](CC(C)C)N(C)C(=O)C[C@@H](C(=O)N(C)C)N(C)C(=O)[C@H](C2CCCC2)N(C)C(=O)C2(CC(C)(C)C2)NC(=O)[C@@H]2C[C@@H](C)CN2C(=O)[C@H](CCc2cc(F)c(C(F)(F)F)c(F)c2)NC(=O)CN(C)C(=O)[C@H](Cc2ccc(C)cc2)N2CC/C=C\C[C@@H](C2=O)N(C)C(=O)CN(C)C1=O [PP2223]
- HRAS/KRAS (ratio of KD value with respect to HRAS to KD value with respect to KRAS) ([1]; SPR): A (a compound having 10 or more and less than 20 is denoted as A)
- NRAS/KRAS (ratio of KD value with respect to NRAS to KD value with respect to KRAS) ([2]; SPR): A (a compound having 10 or more and less than 20 is denoted as A)

SMILES: CC[C@H](C)[C@@H]1NC(=O)[C@H](CC)N(C)C(=O)C[C@@H](C(=O)N(C)C)N(C)C(=O)[C@H](C2CCCC2)N(C)C(=O)C2(CCC2)N(C)C(=O)[C@@H]2C[C@@H](C)CN2C(=O)[C@H](CCc2cc(F)c(C(F)(F)F)c(F)c2)NC(=O)CN(C)C(=O)[C@H](Cc2ccc(C)cc2)N2CC/C=C\C[C@@H](C2=O)N(C)C(=O)CN(C)C1=O [PP1787]
- HRAS/KRAS (ratio of KD value for HRAS to KD value for KRAS) ([1]; KD ratio, SPR): B (a compound having 3 or more and less than 10 is denoted as B)
- NRAS/KRAS (ratio of KD value for NRAS to KD value for KRAS) ([2]; KD ratio, SPR): A (a compound having 10 or more and less than 20 is denoted as A)

SMILES: CC[C@H](C)[C@@H]1NC(=O)[C@H](COC)N(C)C(=O)C[C@@H](C(=O)N(C)C)N(C)C(=O)[C@H](C2CCCCC2)N(C)C(=O)C2(CC(C)(C)C2)NC(=O)[C@@H]2C[C@@H](OC(C)C)CN2C(=O)[C@H](CCc2cc(F)c(C(F)(F)F)c(F)c2)NC(=O)CN(C)C(=O)[C@H](Cc2ccc(C)cc2)N2CC/C=C\C[C@@H](C2=O)N(C)C(=O)CN(C)C1=O [PP2660]
- HRAS/KRAS (ratio of KD value with respect to GDP-bound HRAS wild-type protein to KD value with respect to KRAS) ([1]; class symbols): A (a compound having 10 or more and less than 20 is denoted as A)
- NRAS/KRAS (ratio of KD value with respect to GDP-bound NRAS wild-type protein to KD value with respect to KRAS) ([2]; class symbols): A (a compound having 10 or more and less than 20 is denoted as A)

SMILES: CCOC[C@H]1C(=O)N[C@@H]([C@@H](C)CC)C(=O)N(C2CC2)CC(=O)N(C)[C@H]2C/C=C\CCN(C2=O)[C@@H](Cc2ccc(C)cc2)C(=O)N(C)CC(=O)N[C@@H](CCc2ccc(C(F)(F)F)c(OC)c2)C(=O)N2C[C@H](OCC)C[C@H]2C(=O)NC2(CC(C)(C)C2)C(=O)N(C)[C@@H](CC(C)(C)C)C(=O)N(C)[C@H](C(=O)N(C)C)CC(=O)N1C [PP2724]
- HRAS/KRAS (ratio of KD value with respect to GDP-bound HRAS wild-type protein to KD value with respect to KRAS) ([1]; class symbols): B (a compound having 3 or more and less than 10 is denoted as B)
- NRAS/KRAS (ratio of KD value with respect to GDP-bound NRAS wild-type protein to KD value with respect to KRAS) ([2]; class symbols): A (a compound having 10 or more and less than 20 is denoted as A)
